ChEMBL document CHEMBL1142742, “Synthesis and in vitro and in vivo structure-activity relationships of novel antifungal triazoles for dermatology” (2005)
In brackets after ≈: the same amount, converted by molar mass.

Legend:
Assay type in all cases: functional
Trichophyton tonsurans = experiment: Minimum inhibitory concentration against Trichophyton tonsurans (n=18); conditions: Trichophyton tonsurans; for MIC50: read-out: MIC50; for MIC90: read-out: MIC90
Cavia porcellus [1] = species on record: Cavia porcellus; experiment: Effective dose was measured in guinea pig infected with Microsporum canis on 14th day; conditions: Cavia porcellus; read-out: ED50
Cavia porcellus [2] = species on record: Cavia porcellus; experiment: Effective dose was measured in guinea pig infected with Microsporum canis on 21st day; conditions: Cavia porcellus; read-out: ED50
Mus musculus = species on record: Mus musculus; experiment: Effective dose was measured in mice infected with Trichophyton mentagrophytes; conditions: Mus musculus; read-out: ED50
Cavia porcellus [3] = species on record: Cavia porcellus; experiment: Effective dose was measured in guinea pig infected with Microsporum canis on 7th day; conditions: Cavia porcellus; read-out: ED50
Candida = experiment: Minimum inhibitory concentration against Candida species (n=24); conditions: for MIC50: Candida, read-out: MIC50
Aspergillus sp. = experiment: Minimum inhibitory concentration against Aspergillus species (n=8); conditions: Aspergillus sp.; for MIC50: read-out: MIC50; for MIC90: read-out: MIC90
[4] = Minimum inhibitory concentration against Microsporum species (n=38); conditions: Microsporum; for MIC50: read-out: MIC50; for MIC90: read-out: MIC90
Trichophyton rubrum = experiment: Minimum inhibitory concentration against Trichophyton rubrum (n=14); conditions: Trichophyton rubrum; for MIC50: read-out: MIC50; for MIC90: read-out: MIC90
[5] = Minimum inhibitory concentration against Trichophyton species (n=80); conditions: Trichophyton; for MIC50: read-out: MIC50; for MIC90: read-out: MIC90
Epidermophyton floccosum = experiment: Minimum inhibitory concentration against Epidermophyton floccosum (n=12); conditions: Epidermophyton floccosum; for MIC50: read-out: MIC50; for MIC90: read-out: MIC90
Trichophyton benhamiae = experiment: Minimum inhibitory concentration against Trichophyton mentagrophytes (n=20); conditions: Trichophyton benhamiae; for MIC50: read-out: MIC50; for MIC90: read-out: MIC90

| Structure (SMILES) | MIC50 (Trichophyton tonsurans) [µg/mL] | MIC90 (Trichophyton tonsurans) [µg/mL] | ED50 (Cavia porcellus [1]) [mg/kg] | ED50 (Cavia porcellus [2]) [mg/kg] | ED50 (Mus musculus) [mg/kg] | ED50 (Cavia porcellus [3]) [mg/kg] | MIC90 (Candida) [µg/mL] | MIC50 (Candida) [µg/mL] | MIC50 (Aspergillus sp.) [µg/mL] | MIC90 (Aspergillus sp.) [µg/mL] | MIC50 [4] [µg/mL] | MIC90 [4] [µg/mL] | MIC50 (Trichophyton rubrum) [µg/mL] | MIC90 (Trichophyton rubrum) [µg/mL] | MIC50 [5] [µg/mL] | MIC90 [5] [µg/mL] | MIC50 (Epidermophyton floccosum) [µg/mL] | MIC90 (Epidermophyton floccosum) [µg/mL] | MIC50 (Trichophyton benhamiae) [µg/mL] | MIC90 (Trichophyton benhamiae) [µg/mL] |
| --- | --- | --- | --- | --- | --- | --- | --- | --- | --- | --- | --- | --- | --- | --- | --- | --- | --- | --- | --- | --- |
| CCC1C(=O)N(CC)C(=O)N(c2ccc(N3CCN(c4ccc(OC[C@@H]5CO[C@@](Cn6cncn6)(c6ccc(F)cc6F)O5)cc4)CC3)cc2)C1=O (stereo partly drawn) | > 20 | > 20 | 1.94 | 1.94 | 2.86 | 1.18 | > 20 | 0.32 (≈ 0.447 µM) | > 20 | > 20 | 1 (≈ 1.4 µM) | > 20 | 3.2 (≈ 4.47 µM) | > 20 | > 20 | > 20 | 1 (≈ 1.4 µM) | 3.2 (≈ 4.47 µM) | 1 (≈ 1.4 µM) | > 20 |
| CCN1C(=O)N(c2ccc(N3CCN(c4ccc(OC[C@H]5CO[C@](Cn6cncn6)(c6ccc(F)cc6F)O5)cc4)CC3)cc2)C(=O)C(C)(C)C1=O | > 20 | > 20 | > 5 | > 5 | 3.1 | > 5 | > 20 | 0.66 (≈ 0.922 µM) | > 20 | > 20 | 10 (≈ 14 µM) | > 20 | 11.6 (≈ 16.2 µM) | > 20 | > 20 | > 20 | 3.2 (≈ 4.47 µM) | > 20 | 1 (≈ 1.4 µM) | > 20 |
| CCCn1c(=O)n(CC)c(=O)n(-c2ccc(N3CCN(c4ccc(OC[C@H]5OC[C@](Cn6cncn6)(c6ccc(F)cc6F)O5)cc4)CC3)cc2)c1=O | 10 (≈ 13.7 µM) | > 20 | 2.35 | > 2.5 | > 1.25 | 1.25 | > 20 | 3.2 (≈ 4.38 µM) | > 20 | > 20 | 3.2 (≈ 4.38 µM) | > 20 | 3.2 (≈ 4.38 µM) | 10 (≈ 13.7 µM) | 3.2 (≈ 4.38 µM) | > 20 | 1 (≈ 1.37 µM) | 3.2 (≈ 4.38 µM) | 1 (≈ 1.37 µM) | 3.2 (≈ 4.38 µM) |
| CCN1C(=O)N(c2ccc(N3CCN(c4ccc(OC[C@@H]5CO[C@@](Cn6cncn6)(c6ccc(F)cc6F)O5)cc4)CC3)cc2)C(=O)C(C)(C)C1=O | > 20 | > 20 | 3.28 | 2.35 | > 2.5 | 1.18 | > 20 | 0.32 (≈ 0.447 µM) | > 20 | > 20 | 3.2 (≈ 4.47 µM) | > 20 | 11.6 (≈ 16.2 µM) | > 20 | > 20 | > 20 | 1 (≈ 1.4 µM) | 1 (≈ 1.4 µM) | 1 (≈ 1.4 µM) | > 20 |
| CCN1C(=O)N(c2ccc(N3CCN(c4ccc(OC[C@@H]5OC[C@@](Cn6cncn6)(c6ccc(F)cc6F)O5)cc4)CC3)cc2)C(=O)C(C)(C)C1=O | > 20 | > 20 | > 2.5 | > 2.5 |  | > 2.5 | > 20 | 15 (≈ 21 µM) | > 20 | > 20 | > 20 | > 20 | > 20 | > 20 | > 20 | > 20 | > 20 | > 20 | > 20 | > 20 |
| CC(C)N1CCN(c2ccc(N3CCN(c4ccc(OC[C@@H]5OC[C@@](Cn6cncn6)(c6ccc(F)cc6F)O5)cc4)CC3)cc2)C1=O | 20 (≈ 30.3 µM) | 20 (≈ 30.3 µM) | 2.5 | 2.5 |  | 2.5 | 20 (≈ 30.3 µM) | 20 (≈ 30.3 µM) | 20 (≈ 30.3 µM) | 20 (≈ 30.3 µM) | 2.1 (≈ 3.18 µM) | 20 (≈ 30.3 µM) | 20 (≈ 30.3 µM) | 20 (≈ 30.3 µM) | 20 (≈ 30.3 µM) | 20 (≈ 30.3 µM) | 1 (≈ 1.52 µM) | 20 (≈ 30.3 µM) | 1 (≈ 1.52 µM) | 20 (≈ 30.3 µM) |
| CC(C)N1CCN(c2ccc(N3CCN(c4ccc(OC[C@@H]5CO[C@@](Cn6cncn6)(c6ccc(F)cc6F)O5)cc4)CC3)cc2)C1=O | 1 (≈ 1.52 µM) | 1 (≈ 1.52 µM) | 0.44 | 0.33 | > 2.5 | 0.33 | > 20 | 0.32 (≈ 0.485 µM) | 0.66 (≈ 1 µM) | 1.66 (≈ 2.52 µM) | 0.1 (≈ 0.152 µM) | 0.32 (≈ 0.485 µM) | 0.32 (≈ 0.485 µM) | 0.934 (≈ 1.42 µM) | 0.32 (≈ 0.485 µM) | 1 (≈ 1.52 µM) | 0.032 (≈ 0.0485 µM) | 0.093 (≈ 0.141 µM) | 0.032 (≈ 0.0485 µM) | 0.032 (≈ 0.0485 µM) |
| CCCn1c(=O)n(CC)c(=O)n(-c2ccc(N3CCN(c4ccc(OC[C@H]5CO[C@](Cn6cncn6)(c6ccc(F)cc6F)O5)cc4)CC3)cc2)c1=O |  |  | > 2.5 | > 2.5 |  | > 2.5 | 10 (≈ 13.7 µM) | 1 (≈ 1.37 µM) | 10 (≈ 13.7 µM) | > 20 | 1 (≈ 1.37 µM) | 13 (≈ 17.8 µM) | 3.2 (≈ 4.38 µM) | 3.2 (≈ 4.38 µM) | > 20 | > 20 | 1 (≈ 1.37 µM) | 3.2 (≈ 4.38 µM) | 0.32 (≈ 0.438 µM) | 1 (≈ 1.37 µM) |
| CCN1C(=O)N(c2ccc(N3CCN(c4ccc(OC[C@H]5OC[C@](Cn6cncn6)(c6ccc(F)cc6F)O5)cc4)CC3)cc2)C(=O)C(C)(C)C1=O | 3.2 (≈ 4.47 µM) | 13 (≈ 18.2 µM) | 2.35 | 2.35 |  | 2.35 | > 20 | 0.66 (≈ 0.922 µM) | > 20 | > 20 | 3.2 (≈ 4.47 µM) | > 20 | 3.2 (≈ 4.47 µM) | 10 (≈ 14 µM) | 3.2 (≈ 4.47 µM) | > 20 | 1 (≈ 1.4 µM) | 2.98 (≈ 4.16 µM) | 3.2 (≈ 4.47 µM) | 3.2 (≈ 4.47 µM) |
| CCCn1c(=O)n(CC)c(=O)n(-c2ccc(N3CCN(c4ccc(OC[C@@H]5OC[C@@](Cn6cncn6)(c6ccc(F)cc6F)O5)cc4)CC3)cc2)c1=O | > 20 | > 20 | > 2.5 | > 2.5 |  | > 2.5 | > 20 | 10 (≈ 13.7 µM) | > 20 | > 20 | > 20 | > 20 | > 20 | > 20 | > 20 | > 20 | > 20 | > 20 | > 20 | > 20 |
